Our source for the IC50 values is ChEMBL document CHEMBL4840352 (J Med Chem, 2021).

One assay relates to MV4-11. In words: Antiproliferative activity against human MV4-11 cells incubated for 48 hrs by CCK-8 assay. The format is functional, cell-based. To be noted: MV4-11, 48 h.
A further assay deals with MOLM-13. In words: Antiproliferative activity against human MOLM-13 cells incubated for 48 hrs by CCK-8 assay. The format is functional, cell-based. To be noted: MOLM-13, 48 h.

As for `Nc1c(-c2nc3cc(N4CCN(C(=O)CCCCC#Cc5cccc6c5C(=O)N(C5CCC(=O)NC5=O)C6=O)CC4)ccc3[nH]2)c(=O)[nH]c2cccc(F)c12` (stereo unspecified), the IC50 came to 635 nM with MV4-11 and 306 nM in the assay with MOLM-13.
As for `Nc1c(-c2nc3cc(N4CCN(C(=O)CCC#Cc5cccc6c5C(=O)N(C5CCC(=O)NC5=O)C6=O)CC4)ccc3[nH]2)c(=O)[nH]c2cccc(F)c12` (stereo unspecified), the IC50 in the assay on MV4-11 is 929 nM; in the assay on MOLM-13 it was above 1000 nM.
Consider `Nc1c(-c2nc3cc(N4CCN(CCCCC(=O)Nc5cccc6c5CN(C5CCC(=O)NC5=O)C6=O)CC4)ccc3[nH]2)c(=O)[nH]c2cccc(F)c12` (stereo unspecified), for which the IC50 is above 1000 nM in the assay on MV4-11 and 751 nM in the assay on MOLM-13.
For the compound `Nc1c(-c2nc3cc(N4CCN(CCCC(=O)Nc5cccc6c5C(=O)N(C5CCC(=O)NC5=O)C6=O)CC4)ccc3[nH]2)c(=O)[nH]c2cccc(F)c12` (stereo unspecified), the IC50 came out at 739 nM in the assay on MV4-11 and 419 nM in the assay with MOLM-13.
With `Nc1c(-c2nc3cc(N4CCN(CCCCCCCC(=O)Nc5cccc6c5C(=O)N(C5CCC(=O)NC5=O)C6=O)CC4)ccc3[nH]2)c(=O)[nH]c2cccc(F)c12` (stereo unspecified), the IC50 in the assay with MV4-11 and with MOLM-13 was above 1000 nM throughout.
With `Nc1c(-c2nc3cc(N4CCN(CCCCC(=O)Nc5cccc6c5C(=O)N(C5CCC(=O)NC5=O)C6=O)CC4)ccc3[nH]2)c(=O)[nH]c2cccc(F)c12` (stereo unspecified), the IC50 in the assay with MV4-11 is 726 nM; in the assay on MOLM-13, above 1000 nM.
Consider `Cc1ncsc1-c1ccc(CNC(=O)[C@H]2C[C@H](O)CN2C(=O)[C@H](NC(=O)CCCCC(=O)N2CCN(c3ccc4[nH]c(-c5c(N)c6c(F)cccc6[nH]c5=O)nc4c3)CC2)C(C)(C)C)cc1`, for which the figures for the IC50 in the assay on MV4-11 and with MOLM-13 were 415 nM and 185 nM, respectively.
For the compound `Nc1c(-c2nc3cc(N4CCN(CCC(=O)Nc5cccc6c5C(=O)N(C5CCC(=O)NC5=O)C6=O)CC4)ccc3[nH]2)c(=O)[nH]c2cccc(F)c12` (stereo unspecified), the IC50 in the assay on MV4-11 and in the assay on MOLM-13 was above 1000 nM throughout.
